# Reference: patent publication US6358885B1, “Substituted phenylheterocyclic herbicides” (Mississippi State University, priority 1992, dated 2002)
# Columns and labels:
# [1] = system: rice; experiment: Test C flood test plant response rating 0 to 100; format: in vivo, Oryza sativa; conditions: for Plant response rating Rice Japonica: flood test species listed under POSTEMERGENCE, 0 to 100 scale
# Text: (§1) The compounds evaluated in this test were formulated in a non-phytoxic solvent and applied to the soil surface before plant seedlings emerged (preemergence application), to water that covered the soil surface (flood application), and to plants that were in the one-to-four leaf stage (postemergence application). A sandy loam soil was used for the preemergence and postemergence tests, while a silt loam soil was used in the flood test. Water depth was approximately 2.5 cm for the flood test and was maintained at this level for the duration of the test. Plant species in the preemergence and postemergence tests consisted of barley (Hordeum vulgare), bedstraw (Galium aparine), blackgrass (Alopecurus myosuroides), chickweed (Stellaria media), corn (Zea mays), cotton (Gossypium hirsutum), crabgrass (Digitaria sanguinalis), downy brome (Bromus tectorum), giant foxtail (Setaria faberii), lambsquarters (Chenopodium album), morningglory (Ipomoea hederacea), pigweed ([…]), rape (Brassica napus), ryegrass (Lolium multiflorum), sorghum (Sorghum bicolor), soybean (Glycine max), speedwell (Veronica persica), sugar beet (Beta vulgaris), velvetleaf (Abutilon theophrasti), wheat (Triticum aestivum), wild buckwheat (Polygonum convolvulus), and wild oat (Avena fatua). All plant species were planted one day before application of the compound for the preemergence portion-of this test. Plantings of these species were adjusted to produce plants of appropriate size for the post-emergence portion of the test. […] All plant species were grown using normal greenhouse practices. Visual evaluations of injury expressed on treated plants, when compared to untreated controls, were recorded approximately fourteen to twenty one days after application of the test compound. […] A dash (-) response means no test result.
# [2] = system: rape; experiment: Test B preemergence/postemergence greenhouse plant response rating 0 to 10; format: in vivo, Brassica napus; conditions: 0 to 10 scale
# Method in brief: (§2)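 Postemergence treatment of plants two to eighteen cm tall ran alongside preemergence treatment of planted seed, each using compound in a non-phytotoxic solvent.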
# [3] = system: morningglory; experiment: Test C preemergence/postemergence greenhouse plant response rating 0 to 100; format: in vivo, Ipomoea hederacea; conditions: POSTEMERGENCE; for Plant response rating, Morningglory: 0 to 100 scale
# Text: as §1
# [4] = system: crabgrass; experiment: Test B preemergence/postemergence greenhouse plant response rating 0 to 10; format: in vivo, Digitaria spp.; conditions: 0 to 10 scale
# Method in brief: as §2
# [5] = system: wild oat; experiment: Test C preemergence/postemergence greenhouse plant response rating 0 to 100; format: in vivo, Avena fatua; conditions: POSTEMERGENCE; for Plant response rating, Wild oat: 0 to 100 scale
# Text: as §1
# [6] = system: giant foxtail; experiment: Test B preemergence/postemergence greenhouse plant response rating 0 to 10; format: in vivo, Setaria faberii; conditions: 0 to 10 scale
# Method in brief: as §2
# [7] = system: corn; experiment: Test C preemergence/postemergence greenhouse plant response rating 0 to 100; format: in vivo, Zea mays; conditions: POSTEMERGENCE; for Plant response rating, Corn: 0 to 100 scale
# Text: as §1
# [8] = system: purple nutsedge; experiment: Test B preemergence/postemergence greenhouse plant response rating 0 to 10; format: in vivo, Cyperus rotundus; conditions: 0 to 10 scale
# Method in brief: as §2
# [9] = system: wheat; experiment: Test C preemergence/postemergence greenhouse plant response rating 0 to 100; format: in vivo, Triticum aestivum; conditions: POSTEMERGENCE; for Plant response rating, Wheat: 0 to 100 scale
# Text: as §1
# [10] = system: wild buckwheat; experiment: as above; format: in vivo, Polygonum convolvulus; conditions: POSTEMERGENCE; for Plant response rating, Wild buckwheat: 0 to 100 scale
# Text: as §1
# [11] = system: blackgrass; experiment: Test B preemergence/postemergence greenhouse plant response rating 0 to 10; format: in vivo, Alopecurus myosuroides; conditions: 0 to 10 scale
# Method in brief: as §2
# [12] = system: barnyardgrass; experiment: as above; format: in vivo, Echinochloa crus-galli; conditions: 0 to 10 scale
# Method in brief: as §2
# [13] = Rate 16 g/ha, under POSTEMERGENCE head (flood test species)
smiles,measurement,setting,value
CCOC(=O)COc1cc(-c2nn3c(c2Cl)CCCC3)c(F)cc1Cl [Compound 42],"Plant response rating (0 to 100), Rice Japonica",[1]; [13],0
same,"Plant response rating (0 to 100), Rice Japonica","[1]; Rate 31 g/ha, under POSTEMERGENCE head (flood test species)",10
same,Plant response rating Rice Japonica,[1]; 62 g/ha,20
same,Plant response rating Rice Japonica,[1]; 125 g/ha,40
same,"Plant response rating, Rape","[2]; POSTEMERGENCE, Rate 50 g/ha",9
same,"Plant response rating, Rape","[2]; PREEMERGENCE, Rate 50 g/ha",2
same,"Plant response rating, Rape","[2]; Rate 200 g/ha, POSTEMERGENCE",10
same,"Plant response rating, Rape","[2]; Rate 200 g/ha, PREEMERGENCE",3
same,"Plant response rating, Morningglory",[3]; 62 g/ha,100
same,"Plant response rating, Morningglory",[3]; 125 g/ha,100
same,"Plant response rating (0 to 100), Morningglory",[3]; Rate 16 g/ha,90
same,"Plant response rating (0 to 100), Morningglory",[3]; Rate 31 g/ha,95
same,"Plant response rating, Crabgrass","[4]; POSTEMERGENCE, Rate 50 g/ha",2
same,"Plant response rating, Crabgrass","[4]; POSTEMERGENCE, Rate 200 g/ha",3
same,"Plant response rating, Crabgrass","[4]; PREEMERGENCE, Rate 50 g/ha",0
same,"Plant response rating, Crabgrass","[4]; Rate 200 g/ha, PREEMERGENCE",0
same,"Plant response rating, Wild oat",[5]; 62 g/ha,30
same,"Plant response rating, Wild oat",[5]; 125 g/ha,30
same,"Plant response rating (0 to 100), Wild oat",[5]; Rate 16 g/ha,10
same,"Plant response rating (0 to 100), Wild oat",[5]; Rate 31 g/ha,10
same,"Plant response rating, Giant foxtail","[6]; POSTEMERGENCE, Rate 50 g/ha",3
same,"Plant response rating, Giant foxtail","[6]; PREEMERGENCE, Rate 50 g/ha",0
same,"Plant response rating, Giant foxtail","[6]; Rate 200 g/ha, POSTEMERGENCE",4
same,"Plant response rating, Giant foxtail","[6]; Rate 200 g/ha, PREEMERGENCE",0
same,"Plant response rating, Corn",[7]; 62 g/ha,40
same,"Plant response rating, Corn",[7]; 125 g/ha,40
same,"Plant response rating (0 to 100), Corn",[7]; Rate 16 g/ha,20
same,"Plant response rating (0 to 100), Corn",[7]; Rate 31 g/ha,30
same,"Plant response rating, Nutsedge","[8]; POSTEMERGENCE, Rate 50 g/ha",2
same,"Plant response rating, Nutsedge","[8]; PREEMERGENCE, Rate 50 g/ha",0
same,"Plant response rating, Nutsedge","[8]; Rate 200 g/ha, POSTEMERGENCE",5
same,"Plant response rating, Nutsedge","[8]; Rate 200 g/ha, PREEMERGENCE",0
same,"Plant response rating, Wheat",[9]; 62 g/ha,30
same,"Plant response rating, Wheat",[9]; 125 g/ha,40
same,"Plant response rating (0 to 100), Wheat",[9]; Rate 16 g/ha,10
same,"Plant response rating (0 to 100), Wheat",[9]; Rate 31 g/ha,20
same,"Plant response rating, Wild buckwheat",[10]; 62 g/ha,100
same,"Plant response rating, Wild buckwheat",[10]; 125 g/ha,100
same,"Plant response rating (0 to 100), Wild buckwheat",[10]; Rate 16 g/ha,60
same,"Plant response rating (0 to 100), Wild buckwheat",[10]; Rate 31 g/ha,70
same,"Plant response rating, Blackgrass","[11]; POSTEMERGENCE, Rate 50 g/ha",2
same,"Plant response rating, Blackgrass","[11]; POSTEMERGENCE, Rate 200 g/ha",3
same,"Plant response rating, Blackgrass","[11]; PREEMERGENCE, Rate 50 g/ha",0
same,"Plant response rating, Blackgrass","[11]; Rate 200 g/ha, PREEMERGENCE",0
same,"Plant response rating, Barnyardgrass","[12]; POSTEMERGENCE, Rate 50 g/ha",5
same,"Plant response rating, Barnyardgrass","[12]; POSTEMERGENCE, Rate 200 g/ha",8
same,"Plant response rating, Barnyardgrass","[12]; PREEMERGENCE, Rate 50 g/ha",0
same,"Plant response rating, Barnyardgrass","[12]; Rate 200 g/ha, PREEMERGENCE",0
COC(=O)c1cc(-c2nn3c(c2Cl)CCCC3)c(F)cc1Cl [Compound 43],"Plant response rating (0 to 100), Rice Japonica","[1]; POSTEMERGENCE section, flood test, Rate 4 g/ha",35
same,"Plant response rating (0 to 100), Rice Japonica",[1]; [13],60
same,Plant response rating Rice Japonica,[1]; 62 g/ha,70
same,Plant response rating Rice Japonica,[1]; 250 g/ha,75
same,"Plant response rating, Rape","[2]; POSTEMERGENCE, Rate 50 g/ha",9
same,"Plant response rating, Rape","[2]; PREEMERGENCE, Rate 50 g/ha",0
same,"Plant response rating, Rape","[2]; Rate 200 g/ha, POSTEMERGENCE",10
same,"Plant response rating, Rape","[2]; Rate 200 g/ha, PREEMERGENCE",9
same,"Plant response rating, Morningglory",[3]; 62 g/ha,90
same,"Plant response rating, Morningglory",[3]; 250 g/ha,100
same,"Plant response rating (0 to 100), Morningglory",[3]; Rate 4 g/ha,40
same,"Plant response rating (0 to 100), Morningglory",[3]; Rate 16 g/ha,60
same,"Plant response rating, Crabgrass","[4]; POSTEMERGENCE, Rate 50 g/ha",4
same,"Plant response rating, Crabgrass","[4]; PREEMERGENCE, Rate 50 g/ha",0
same,"Plant response rating, Crabgrass","[4]; Rate 200 g/ha, PREEMERGENCE",0
same,"Plant response rating, Wild oat",[5]; 62 g/ha,50
same,"Plant response rating, Wild oat",[5]; 250 g/ha,60
same,"Plant response rating (0 to 100), Wild oat",[5]; Rate 4 g/ha,20
same,"Plant response rating (0 to 100), Wild oat",[5]; Rate 16 g/ha,40
same,"Plant response rating, Giant foxtail","[6]; POSTEMERGENCE, Rate 50 g/ha",5
same,"Plant response rating, Giant foxtail","[6]; PREEMERGENCE, Rate 50 g/ha",0
same,"Plant response rating, Giant foxtail","[6]; Rate 200 g/ha, POSTEMERGENCE",6
same,"Plant response rating, Giant foxtail","[6]; Rate 200 g/ha, PREEMERGENCE",0
same,"Plant response rating, Corn",[7]; 62 g/ha,90
same,"Plant response rating, Corn",[7]; 250 g/ha,90
same,"Plant response rating (0 to 100), Corn",[7]; Rate 4 g/ha,20
same,"Plant response rating (0 to 100), Corn",[7]; Rate 16 g/ha,50
same,"Plant response rating, Nutsedge","[8]; POSTEMERGENCE, Rate 50 g/ha",3
same,"Plant response rating, Nutsedge","[8]; PREEMERGENCE, Rate 50 g/ha",0
same,"Plant response rating, Nutsedge","[8]; Rate 200 g/ha, POSTEMERGENCE",3
same,"Plant response rating, Nutsedge","[8]; Rate 200 g/ha, PREEMERGENCE",0
same,"Plant response rating, Wheat",[9]; 62 g/ha,50
same,"Plant response rating, Wheat",[9]; 250 g/ha,60
same,"Plant response rating (0 to 100), Wheat",[9]; Rate 4 g/ha,20
same,"Plant response rating (0 to 100), Wheat",[9]; Rate 16 g/ha,40
same,"Plant response rating, Wild buckwheat",[10]; 62 g/ha,100
same,"Plant response rating, Wild buckwheat",[10]; 250 g/ha,100
same,"Plant response rating (0 to 100), Wild buckwheat",[10]; Rate 4 g/ha,60
same,"Plant response rating (0 to 100), Wild buckwheat",[10]; Rate 16 g/ha,100
same,"Plant response rating, Blackgrass","[11]; POSTEMERGENCE, Rate 50 g/ha",7
same,"Plant response rating, Blackgrass","[11]; POSTEMERGENCE, Rate 200 g/ha",8
same,"Plant response rating, Blackgrass","[11]; PREEMERGENCE, Rate 50 g/ha",2
same,"Plant response rating, Blackgrass","[11]; Rate 200 g/ha, PREEMERGENCE",5
same,"Plant response rating, Barnyardgrass","[12]; POSTEMERGENCE, Rate 50 g/ha",7
same,"Plant response rating, Barnyardgrass","[12]; POSTEMERGENCE, Rate 200 g/ha",9
same,"Plant response rating, Barnyardgrass","[12]; PREEMERGENCE, Rate 50 g/ha",0
same,"Plant response rating, Barnyardgrass","[12]; Rate 200 g/ha, PREEMERGENCE",2
